This is an account of results in paper PMC8365601, “Terphenyl-Based Small-Molecule Inhibitors of Programmed Cell Death-1/Programmed Death-Ligand 1 Protein–Protein Interaction” (Journal of Medicinal Chemistry, 2021).

The assay concerns the target PD-1/PD-L1 complex (Homo sapiens, UniProt Q9NZQ7). Briefly: HTRF assay of PD-1/PD-L1 complex dissociation (CisBio).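 On all read-outs here: human PD-L1 at 5 nM with human PD-1 at 50 nM, TR-FRET signal read after 2 h at room temperature, background removed via negative control and scaled to positive control.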 The conditions noted are these: for remaining activity at 5 µM / remaining activity at 50 µM: 2 h; for IC50: HTRF; for % of undissociated complex: at 50 μM, Table S1; for HTRF % of the undissociated complex: determined at 50 μM inhibitor (footnote a), Table 2. A general note: TR-FRET usually uses a lanthanide donor and a delayed reading to cut background.

[1] abbreviates: read-out: % of the undissociated complex in HTRF.
Where [2] appears, read: read-out: % of undissociated complex at 5 μM.
The mark [3] stands for this setting: read-out: HTRF % of the undissociated complex at 5 μM.

Structures are written as SMILES. Read-outs that look alike come from different tables or passages of the source.

PD-1/PD-L1 complex, sequence (Q9NZQ7 19-238 limits assumed, one chain of several): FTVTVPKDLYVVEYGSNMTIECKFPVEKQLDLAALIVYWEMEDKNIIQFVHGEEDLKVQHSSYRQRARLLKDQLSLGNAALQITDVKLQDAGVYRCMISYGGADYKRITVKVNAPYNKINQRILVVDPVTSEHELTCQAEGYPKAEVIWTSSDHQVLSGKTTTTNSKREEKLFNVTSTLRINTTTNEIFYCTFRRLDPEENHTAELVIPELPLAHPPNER

In the case of `Cc1c(-c2cccc(CO)c2)cccc1-c1ccc2c(c1)OCCO2` [4b, (3′-(Benzo-1,4-dioxan-6-yl)-2′-methyl-[1,1′-biphenyl]-3-yl)methanol], the remaining activity at 5 µM runs as follows: under setting [1], 88%; under setting [2], 88%; under setting [3], 88%.

Consider `Cc1c(-c2ccc3c(c2)OCCO3)cccc1-c1ccccc1CO` [4c, (3′-(Benzo-1,4-dioxan-6-yl)-2′-methyl-[1,1′-biphenyl]-2-yl)methanol], for which the remaining activity at 5 µM runs as follows: under setting [1], 98%; under setting [2], 98%; under setting [3], 98%.

As for `Nc1c(-c2ccc(CO)cc2)cccc1-c1ccc2c(c1)OCCO2` [4d, (2′-Amino-3′-(benzo-1,4-dioxan-6-yl)-[1,1′-biphenyl]-4-yl)methanol], the remaining activity at 5 µM is, setting by setting: under setting [1], 73%; under setting [2], 73%; under setting [3], 73%.

Broadly, the IC50 is the concentration that inhibits the measured activity by half. Compound `OCc1ccc(-c2cccc(-c3ccc4c(c3)OCCO4)c2Cl)cc1` [4e, (3′-(Benzo-1,4-dioxan-6-yl)-2′-chloro-[1,1′-biphenyl]-4-yl)methanol] gave an IC50 of roughly 500 nM. For the same compound, the remaining activity at 5 µM under setting [1] stood at 1%. Also, under setting [2], the remaining activity at 5 µM was 1%. Also, the remaining activity at 5 µM under setting [3] came to 1%. The same compound displayed an IC50 (Table 1) of 510 ± 10 nM.

As for `OCc1ccc(-c2cccc(-c3ccc4c(c3)OCCO4)c2Br)cc1` [4f, (3′-(Benzo-1,4-dioxan-6-yl)-2′-bromo-[1,1′-biphenyl]-4-yl)methanol], the remaining activity at 5 µM runs as follows: under setting [1], 15%; under setting [2], 15%; under setting [3], 15%. Moreover, where the note is “Table 1”, the IC50 turned out to be 950 ± 20 nM.

Regarding `OCc1ccc(-c2cccc(-c3ccc4c(c3)OCCO4)c2I)cc1` [4g, (3′-(Benzo-1,4-dioxan-6-yl)-2′-iodo-[1,1′-biphenyl]-4-yl)methanol], the remaining activity at 5 µM under setting [1] came to 56%, the remaining activity at 5 µM under setting [2] is 56% and the remaining activity at 5 µM under setting [3] came out at 56%.

In the case of `N#Cc1c(-c2ccc(CO)cc2)cccc1-c1ccc2c(c1)OCCO2` [4h], the remaining activity at 5 µM runs as follows: under setting [1], 21%; under setting [2], 21%; under setting [3], 21%. In addition, where the note is “Table 1”, the IC50 came to 1170 ± 120 nM.

For `Cc1c(-c2ccc(COc3cccc(C(=O)O)c3)cc2)cccc1-c1ccc2c(c1)OCCO2` [5b, 3-((3′-(Benzo-1,4-dioxan-6-yl)-2′-methyl-[1,1′-biphenyl]-4-yl)methoxy)benzoic Acid], the “% of undissociated complex” value worked out at 71% and the “HTRF % of the undissociated complex” value was 71^[a] %. The remaining activity at 50 µM under setting [1] is 71%.

Regarding `Cc1c(-c2ccc(COc3ccc(-c4cccnc4)c(C=O)c3)cc2)cccc1-c1ccc2c(c1)OCCO2` [5d, 5-((3′-(Benzo-1,4-dioxan-6-yl)-2′-methyl-[1,1′-biphenyl]-4-yl)methoxy)-2-(pyridin-3-yl)benzaldehyde], the “% of undissociated complex” value amounted to 65% and the “HTRF % of the undissociated complex” value was 65^[a] %. Further, the remaining activity at 50 µM under setting [1] came out at 65%.

Take `Cc1c(-c2ccc(COc3cc(C(=O)O)on3)cc2)cccc1-c1ccc2c(c1)OCCO2` [5f, 3-((3′-(Benzo-1,4-dioxan-6-yl)-2′-methyl-[1,1′-biphenyl]-4-yl)methoxy)isoxazole-5-carboxylic Acid]: the remaining activity at 5 µM under setting [1] was 90%, the remaining activity at 5 µM under setting [2] is 90% and the remaining activity at 5 µM under setting [3] was determined as 90%.

Turning to `Cc1c(-c2ccc(Cn3cc(C(=O)O)nn3)cc2)cccc1-c1ccc2c(c1)OCCO2` [5h, 1-((3′-(Benzo-1,4-dioxan-6-yl)-2′-methyl-[1,1′-biphenyl]-4-yl)methyl)-1H-1,2,3-triazole-4-carboxylic Acid], the remaining activity at 5 µM under setting [1] came to 100%, the remaining activity at 5 µM under setting [2] came out at 100% and the remaining activity at 5 µM under setting [3] came out at 100%.
